Some results are limits rather than exact numbers.

In the experiment the target is T1, Human FXRα Ligand Binding Domain (Homo sapiens, UniProt Q96RI1).
T1 construct: polyhistidine (pRSET-A vector leader) (N); made in house; host or cells: E. coli BL21 (DE3), pRSET-A vector
T1 sequence (Q96RI1 237-472 isoform Q96RI1-2): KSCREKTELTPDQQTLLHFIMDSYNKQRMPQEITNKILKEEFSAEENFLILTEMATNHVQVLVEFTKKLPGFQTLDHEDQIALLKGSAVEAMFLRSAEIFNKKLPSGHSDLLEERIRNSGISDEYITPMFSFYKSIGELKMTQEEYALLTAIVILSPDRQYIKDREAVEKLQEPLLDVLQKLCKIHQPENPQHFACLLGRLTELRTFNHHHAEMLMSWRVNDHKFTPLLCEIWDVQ
In words: FXR Cofactor Binding Assay (ligand mediated SRC-1 cofactor peptide interaction, time resolved fluorescence). The following applies: FXRα LBD / SRC-1 (LCD2, 676-700) peptide, TRF; read-out: Activity (pEC50) (converted). The experiment is classed as biochemical. The text has this:
Determination of a ligand mediated cofactor peptide interaction to quantify ligand binding to the nuclear receptor Farnesoid X Receptor (FXR). The method measures the ability of putative ligands to modulate the interaction between the purified bacterial expressed FXRα ligand binding domain (LBD) and a synthetic biotinylated peptide based on residues 676-700 of steroid receptor coactivator-1 (SRC-1) (LXXLL-containing domain-2 where L is the amino acid leucine and X indicates any other amino acid (LCD2), 676-700). The sequence of the SRC-1 peptide used is as published in Iannone, M. A., et al., 2001 Cytometry 44:326-337 where the N-terminus was biotinylated (B) and the C-terminus was amidated. Detection of the associated complex was measured by time resolved fluorescence (TRF). The purified LBD of FXR was labeled with biotin, then mixed with stoichiometric amounts of allophycocyanin (APC) labeled streptavidin (Molecular Probes). The biotinylated peptide was then mixed with a ½ stoichiometric amount of europium labeled streptavidin (Wallac Inc). Each was then blocked with a 5 fold excess of biotin and allowed to equilibrate for 15 min. Equimolar amounts of receptor and peptide were mixed together and were allowed to equilibrate for at least 30 min prior to the addition to either a variable or constant concentrations of the sample for which the affinity is to be determined. After equilibration, the time-resolved fluorescent signal was quantitated using a fluorescent plate reader. The affinity of the test compound was estimated from a plot of fluorescence versus concentration of test compound added.
Ligands that promote the complex formation induce a concentration-dependent increase in time-resolved fluorescent signal.
Human FXRα Ligand Binding Domain (FXRα LBD) was expressed in E. coli strain BL21 (DE3) as an amino-terminal polyhistidine tagged fusion protein. Expression was under the control of an isopropyl-β-D-thiogalactopyranoside (IPTG) inducible T7 promoter. DNA encoding this recombinant protein is subcloned into the pRSET-A expression vector (Invitrogen). The coding sequence of Human FXRα LBD was derived from Genbank accession number U 68233 (amino acids 237 to 472).
Ten-liter fermentation batches were grown in Rich PO4 media with 0.1 mg/mL Ampicillin at 25° C. for 12 hours, cooled to 9° C. and held at that temperature for 36 hours to a density of OD600=14. At this cell density, 0.25 mM IPTG is added and induction proceeded for 24 hours at 9° C., to a final OD600=16. Cells are harvested by centrifugation (20 minutes, 3500×gravity, 4° C.), and concentrated cell slurries were stored in phosphate buffered saline (PBS) at […].
Routinely, 30-40 g cell paste (equivalent to 2-3 liters of the fermentation batch) was resuspended in 200-250 mL Tris buffered saline (TBS), pH 7.2 (25 mM Tris-hydroxymethylamino methane (Tris), 150 mM sodium chloride). Cells were lysed by passing 3 times through a French Press and cell debris was removed by centrifugation (30 minutes, 20,000×gravity, 4° C.). The cleared supernatant was filtered through course pre-filters, and TBS, pH 7.2, 500 mM imidazole was added to obtain a final imidazole concentration of 50 mM. This lysate was loaded onto a column (6×8 cm) packed with Sepharose [Ni^++ charged] Chelation resin (Pharmacia) and pre-equilibrated with TBS pH 7.2/50 mM imidazole. After washing to baseline absorbance with equilibration buffer, the column was washed with one column volume of TBS pH 7.2 containing 90 mM imidazole. FXRα LBD was eluted directly with 365 mM imidazole. Column fractions were pooled and dialyzed against TBS, pH 7.2, containing 0.5 mM EDTA and 5 mM DTT. The dialyzed protein sample was concentrated using Centri-prep 10 K (Amicon) and subjected to size exclusion, using a column (3×90 cm) packed with Sepharose S-75 resin (Pharmacia) pre-equilibrated with TBS, pH 7.2, containing 0.5 mM ethylene diamine tetraacetic acid (EDTA) and 5 mM dithiothreitol (DTT).
Take `CC(C)c1onc(-c2c(Cl)cccc2Cl)c1COc1ccc2cc(-c3ccc(Cl)c(C(=O)O)c3)ccc2c1` [Example 34, 2-Chloro-5-[6-({[3-(2,6-dichlorophenyl)-5-(1-methylethyl)-4-isoxazolyl]methyl}oxy)-2-naphthalenyl]benzoic acid]: the EC50 is 0.102 to 1 µM.
The figure for `CC(C)c1onc(-c2c(Cl)cccc2Cl)c1COc1ccc2cc(-c3ccc(F)c(C(=O)O)c3)ccc2c1` [Example 35, 5-[6-({[3-(2,6-Dichlorophenyl)-5-(1-methylethyl)-4-isoxazolyl]methyl}oxy)-2-naphthalenyl]-2-fluorobenzoic acid] is 0.102 to 1 µM.
The figure for `CC(C)c1onc(-c2c(Cl)cccc2Cl)c1COc1ccc2cc(-c3cccc(C(=O)O)c3)sc2c1` [Example 36, 3-[6-({[3-(2,6-Dichlorophenyl)-5-(1-methylethyl)-4-isoxazolyl]methyl}oxy)-1-benzothien-2-yl]benzoic acid] is 0.102 to 1 µM; for `CC(C)c1onc(-c2c(Cl)cccc2Cl)c1CNc1nc2ccc(-c3cccc(C(=O)O)c3)cc2s1` [Example 37, 3-[2-({[3-(2,6-Dichlorophenyl)-5-(1-methylethyl)-4-isoxazolyl]methyl}amino)-1,3-benzothiazol-6-yl]benzoic acid] it is 0.102 to 1 µM.
In the case of `CC(C)c1onc(-c2c(Cl)cccc2Cl)c1COc1ccc2cc(-c3cccc(C(=O)O)c3)ccc2c1` [Example 38, 3-[6-({[3-(2,6-Dichlorophenyl)-5-(1-methylethyl)-4-isoxazolyl]methyl}oxy)-2-naphthalenyl]benzoic acid] it was 0.102 to 1 µM.
Regarding `CC(C)c1onc(-c2c(Cl)cccc2Cl)c1CCc1nc2cc(-c3cccc(C(=O)O)c3)ccc2o1` [Example 39, 3-(2-{2-[3-(2,6-dichlorophenyl)-5-(1-methylethyl)-4-isoxazolyl]ethyl}-1,3-benzoxazol-5-yl)benzoic acid], the EC50 is 1.02 to 10 µM.
In the case of `CC(C)c1onc(-c2c(Cl)cccc2Cl)c1COc1ccc2c(Nc3cccc(C(=O)O)c3)cccc2c1` [Example 40, 3-{[6-({[3-(2,6-Dichlorophenyl)-5-(1-methylethyl)-4-isoxazolyl]methyl}oxy)-1-naphthalenyl]amino}benzoic acid] it was 0.102 to 1 µM; in that of `CC(C)c1onc(-c2c(Cl)cccc2Cl)c1CCc1nc2cccc(Nc3cccc(C(=O)O)c3)c2o1` [Example 41, 3-[(2-{2-[3-(2,6-Dichlorophenyl)-5-(1-methylethyl)-4-isoxazolyl]ethyl}-1,3-benzoxazol-7-yl)amino]benzoic acid], 1.02 to 10 µM; in that of `CC(C)c1onc(-c2c(Cl)cccc2Cl)c1COc1ccc2c(c1)ncn2Cc1cccc(C(=O)O)c1` [Example 42, 3-{[5-({[3-(2,6-Dichlorophenyl)-5-(1-methylethyl)-4-isoxazolyl]methyl}oxy)-1H-benzimidazol-1-yl]methyl}benzoic acid], 1.02 to 10 µM.
For the compound `CC(C)c1onc(-c2c(Cl)cccc2Cl)c1COc1ccc2c(ccn2S(=O)(=O)c2cccc(C(=O)O)c2)c1` [Example 43, 3-{[5-({[3-(2,6-Dichlorophenyl)-5-(1-methylethyl)-4-isoxazolyl]methyl}oxy)-1H-indol-1-yl]sulfonyl}benzoic acid], the EC50 is 0.102 to 1 µM.
Regarding `CC(C)c1onc(-c2c(Cl)cccc2Cl)c1COc1ccc2c(c1)CN(c1cccc(C(=O)O)c1)C2=O` [Example 44, 3-[5-({[3-(2,6-Dichlorophenyl)-5-(1-methylethyl)-4-isoxazolyl]methyl}oxy)-1-oxo-1,3-dihydro-2H-isoindol-2-yl]benzoic acid], the EC50 is 0.102 to 1 µM.
On to `CC(C)c1onc(-c2c(Cl)cccc2Cl)c1COc1ccc2c(c1)CC(=O)N(c1cccc(C(=O)O)c1)C2` [Example 45, 3-[6-({[3-(2,6-Dichlorophenyl)-5-(1-methylethyl)-4-isoxazolyl]methyl}oxy)-3-oxo-3,4-dihydro-2(1H)-isoquinolinyl]benzoic acid], for which the EC50 was 1.02 to 10 µM.
The figure for `CC(C)c1onc(-c2c(Cl)cccc2Cl)c1COc1ccc2c(ccn2Cc2ccc(-c3nnn[nH]3)cc2)c1` [Example 46, 5-({[3-(2,6-Dichlorophenyl)-5-(1-methylethyl)-4-isoxazolyl]methyl}oxy)-1-{[4-(1H-tetrazol-5-yl)phenyl]methyl}-1H-indole] is below 0.1 µM; for `CC(C)c1onc(-c2c(Cl)cccc2Cl)c1COc1ccc2c(ccn2Cc2nc(C(=O)O)co2)c1` [Example 47, 2-{[5-({[3-(2,6-Dichlorophenyl)-5-(1-methylethyl)-4-isoxazolyl]methyl}oxy)-1H-indol-1-yl]methyl}-1,3-oxazole-4-carboxylic acid] it is 0.102 to 1 µM; for `Cc1ccc(Cn2ccc3cc(OCc4c(-c5c(Cl)cccc5Cl)noc4C(C)C)ccc32)cc1C(=O)O` [Example 48, 5-{[5-({[3-(2,6-Dichlorophenyl)-5-(1-methylethyl)-4-isoxazolyl]methyl}oxy)-1H-indol-1-yl]methyl}-2-methylbenzoic acid] it is 0.102 to 1 µM.
In the case of `CC(C)c1onc(-c2c(Cl)cccc2Cl)c1COc1ccc2c(ccn2Cc2cccc(C(=O)O)n2)c1` [Example 49, 6-{[5-({[3-(2,6-Dichlorophenyl)-5-(1-methylethyl)-4-isoxazolyl]methyl}oxy)-1H-indol-1-yl]methyl}-2-pyridinecarboxylic acid] it was 0.102 to 1 µM; in that of `CC(C)c1onc(-c2c(Cl)cccc2Cl)c1COc1ccc2[nH]cc(Cc3cccc(C(=O)O)c3)c2c1` [Example 50, 3-{[5-({[3-(2,6-Dichlorophenyl)-5-(1-methylethyl)-4-isoxazolyl]methyl}oxy)-1H-indol-3-yl]methyl}benzoic acid], 1.02 to 10 µM.
In the case of `CC(C)c1onc(-c2c(Cl)cccc2Cl)c1COc1ccc2c(ccn2Cc2nc(C(=O)O)cs2)c1` [Example 51, 2-{[5-({[3-(2,6-Dichlorophenyl)-5-(1-methylethyl)-4-isoxazolyl]methyl}oxy)-1H-indol-1-yl]methyl}-1,3-thiazole-4-carboxylic acid] it was 0.102 to 1 µM; in that of `CC(C)c1onc(-c2c(Cl)cccc2Cl)c1COc1ccc2c(Cc3cccc(C(=O)O)c3)c[nH]c2c1` [Example 52, 3-{[6-({[3-(2,6-Dichlorophenyl)-5-(1-methylethyl)-4-isoxazolyl]methyl}oxy)-1H-indol-3-yl]methyl}benzoic acid], 0.102 to 1 µM.
As for `CC(C)c1onc(-c2c(Cl)cccc2Cl)c1COc1ccc2c(ccn2C(=O)N2CC[C@@H](C(=O)O)C2)c1` [Example 53, (3R)-1-{[5-({[3-(2,6-Dichlorophenyl)-5-(1-methylethyl)-4-isoxazolyl]methyl}oxy)-1H-indol-1-yl]carbonyl}-3-pyrrolidinecarboxylic acid], the EC50 is 0.102 to 1 µM.
The figure for `CC(C)c1onc(-c2c(Cl)cccc2Cl)c1COc1ccc2sc(-c3cccc(C(=O)O)c3)cc2c1` [Example 54, 3-[5-({[3-(2,6-Dichlorophenyl)-5-(1-methylethyl)-4-isoxazolyl]methyl}oxy)-1-benzothien-2-yl]benzoic acid] is below 0.1 µM.

The record behind these values is US20110034507A1, “FARNESOID X RECEPTOR AGONISTS” (SMITHKLINE BEECHAM CORPORATION, priority 2007, published 2011).
